# “And” between values parts separate entries of the source, which are not always exact repeats. Identical values can stand only once. Marks after values point to notes of the source that are not given here.
# Test system: postmenopausal women
# Assay: ERC-210 phase III trial, Abbreviated Sexual Function (ASF) questionnaire
# Assay type: in vivo
# Source text: The example below is intended only to illustrate a particular embodiment of the present invention and is not meant to limit the scope of the invention in any manner. This study (ERC-210) is a phase III, prospective, multicentre, randomized, placebo-controlled, and double-blind trial. […] The DHEA ovules or suppositories (Vaginorm™) containing prasterone in a lipophilic base were manufactured by Recipharm, Karlskoga, Sweden. The study was divided into two phases, namely screening followed by a treatment period of 12 weeks. The protocol was approved by the Institutional Review Board of the Centre Hospitalier de I'Université Laval (Quebec City, Canada), McGill University (Montreal, Canada), Ethica (Montreal, Canada), Eastern Virginia Medical School (Norfolk, Va., USA) and the Western Institutional Review Board (Los Angeles, USA).
# The inclusion and exclusion criteria were as described in (Labrie, Archer et al. 2009b). A written informed consent was obtained from all subjects prior to the performance of any study-related procedure. […] A partial gynecological examination was performed to evaluate the aspect of the mucosa and tolerance to the medication on day 1 and at all visits. The standard laboratory tests, namely hematology (including complete blood count and coagulation), blood chemistry and urinalysis were performed at screening, day 1 and at all visits. Summary tabulations were prepared displaying the number of observations, mean or geometric mean as appropriate, SD; SEM, 95% two-sided CI; median, minimum, and maximum for continuous variables; and the number and percentage per category for categorical data. Statistical analyses were performed at the two-sided significance level of 0.05 unless otherwise stated. […] The endpoints for analysis consisted of the following: desire/interest, arousal and orgasm were self-rated by the women at screening, at day 1, and at week 4, 8 and 12 using the ASF and MENQOL questionnaires. Baseline was defined as the value on day 1, obtained before first use of the study treatment, and change from baseline to week 12 was calculated for each participant for each domain endpoint. The analysis comparing each dose of DHEA to placebo was performed by analysis of covariance, with the baseline value used as the covariate. Missing values were replaced by the last observation made.
# The other questionnaire used in our study to investigate sexual dysfunction has been the Abbreviated Sexual Function (ASF) questionnaire. […] When the groups with no MS pain are considered, improvements of −1.2% (p=0.9028), 31% (p=0.0337), 4.8% (p=0.3706) and 3.7% (p=0.5372) are observed compared to 12% (p=0.0134), 32% (p=0.1349), 16% (p=0.8546) and 29% (p=0.0341) in the corresponding MS pain groups.
# When the orgasm domain of the ASF questionnaire is analyzed, a strong placebo effect is observed in response to the composite of the three following questions; a) over the last 4 weeks, how often did you have an orgasm when you took part in sexual activity (may be with or without partner); b) over the last 4 weeks, in general, how pleasurable were the orgasms the you had and; c) over the last 4 weeks, in general, how easy was it for you to reach orgasm?
# [1] = 0.25% DHEA intravaginal daily 12 weeks, MS pain at sexual activity at baseline
# [2] = 0.25% DHEA intravaginal daily 12 weeks, all subjects (ITT)
# [3] = 0.25% DHEA intravaginal daily 12 weeks, no MS pain at sexual activity at baseline
# [4] = 0.5% DHEA intravaginal daily 12 weeks, MS pain at sexual activity at baseline
# [5] = 0.5% DHEA intravaginal daily 12 weeks, all subjects (ITT)
# [6] = 0.5% DHEA intravaginal daily 12 weeks, no MS pain at sexual activity at baseline
# [7] = 1.0% DHEA intravaginal daily 12 weeks, no MS pain at sexual activity at baseline
# [8] = Pool 3 Doses DHEA intravaginal daily 12 weeks, MS pain at sexual activity at baseline
# [9] = Pool 3 Doses DHEA intravaginal daily 12 weeks, MS pain at sexual activity at baseline, listed as prasterone
# [10] = Pool 3 Doses DHEA intravaginal daily 12 weeks, all subjects (ITT)
# [11] = Pool 3 Doses DHEA intravaginal daily 12 weeks, all subjects (ITT), listed as prasterone
# [12] = Pool 3 Doses DHEA intravaginal daily 12 weeks, no MS pain at sexual activity at baseline
# [13] = Pool 3 Doses DHEA intravaginal daily 12 weeks, no MS pain at sexual activity at baseline, listed as prasterone
# [14] = average of the 3 DHEA doses, MS PAIN at baseline
# [15] = average of the 3 DHEA doses, NO MS PAIN at baseline
# [16] = average of the 3 DHEA doses, TOTAL (all women)
smiles,measurement,setting,value
"C[C@]12CC[C@H](O)CC1=CC[C@@H]1[C@@H]2CC[C@]2(C)C(=O)CC[C@@H]12 [DHEA, (3β)-3-Hydroxyandrost-5-en-17-one]","ASF Arousal/lubrication score, average % change from baseline to Week 12 (increased from baseline)",[1],189%
same,"ASF Arousal/sensation score, average % change from baseline to Week 12 (increased from baseline)",[1],97%
same,"ASF Desire score, average % change from baseline to Week 12 (increased from baseline)",[1],32%
same,"ASF Orgasm score, average % change from baseline to Week 12 (increased from baseline)",[1],66%
same,"ASF SUMMARY SCORE, average % change from baseline to Week 12 (increased from baseline)",[1],59%
same,"ASF Arousal/sensation score, average % change from baseline to Week 12 (increased from baseline)",[2],80%
same,"ASF Orgasm score, average % change from baseline to Week 12 (increased from baseline)",[2],64%
same,"ASF Arousal/lubrication score, average % change from baseline to Week 12 (increased from baseline)",[3],95%
same,"ASF Arousal/sensation score, average % change from baseline to Week 12 (increased from baseline)",[3],43%
same,"ASF Orgasm score, average % change from baseline to Week 12 (increased from baseline)",[3],59%
same,"ASF SUMMARY SCORE, average % change from baseline to Week 12 (increased from baseline)",[3],42%
same,"ASF Arousal/sensation score, average % change from baseline to Week 12 (increased from baseline)",[4],66%
same,"ASF Desire score, average % change from baseline to Week 12 (increased from baseline)",[4],16%
same,"ASF Orgasm score, average % change from baseline to Week 12 (increased from baseline)",[4],51%
same,"ASF SUMMARY SCORE, average % change from baseline to Week 12 (increased from baseline)",[4],42%
same,"ASF Desire score, average % change from baseline to Week 12 (increased from baseline)",[5],13%
same,"ASF Orgasm score, average % change from baseline to Week 12 (increased from baseline)",[5],53%
same,"ASF SUMMARY SCORE, average % change from baseline to Week 12 (increased from baseline)",[5],39%
same,"ASF Arousal/lubrication score, average % change from baseline to Week 12 (increased from baseline)",[6],106%
same,"ASF Arousal/sensation score, average % change from baseline to Week 12 (increased from baseline)",[6],103%
same,"ASF Desire score, average % change from baseline to Week 12 (increased from baseline)",[6],4.8%
same,"ASF Orgasm score, average % change from baseline to Week 12 (increased from baseline)",[6],56%
same,"ASF SUMMARY SCORE, average % change from baseline to Week 12 (increased from baseline)",[6],31%
same,"ASF Orgasm score, average % change from baseline to Week 12 (increased from baseline)","1.0% DHEA intravaginal daily 12 weeks, MS pain at sexual activity at baseline",76%
same,"ASF Orgasm score, average % change from baseline to Week 12 (increased from baseline)","1.0% DHEA intravaginal daily 12 weeks, all subjects (ITT)",71%
same,"ASF Arousal/lubrication score, average % change from baseline to Week 12 (increased from baseline)",[7],63%
same,"ASF Arousal/sensation score, average % change from baseline to Week 12 (increased from baseline)",[7],30%
same,"ASF Desire score, average % change from baseline to Week 12 (increased from baseline)",[7],3.7%
same,"ASF Orgasm score, average % change from baseline to Week 12 (increased from baseline)",[7],50%
same,"ASF SUMMARY SCORE, average % change from baseline to Week 12 (increased from baseline)",[7],21%
same,"Sum of changes above placebo, ASF domains",MS group,209.4%
same,"ASF Arousal/lubrication score, average % change from baseline to Week 12 (increased from baseline)",[8],171%**
same,"ASF Arousal/sensation score, average % change from baseline to Week 12 (increased from baseline)",[8],76.2%*
same,"ASF Desire score, average % change from baseline to Week 12 (increased from baseline)",[8],24.9%
same,"ASF Orgasm score, average % change from baseline to Week 12 (increased from baseline)",[8],64.3%
same,"ASF Arousal/lubrication score, average % change from baseline to Week 12 (increased from baseline)",[9],171%
same,"ASF Arousal/sensation score, average % change from baseline to Week 12 (increased from baseline)",[9],76.2%
same,"ASF Desire score, average % change from baseline to Week 12 (increased from baseline)",[9],24.9%
same,"ASF Orgasm score, average % change from baseline to Week 12 (increased from baseline)",[9],64.3%
same,"ASF Arousal/lubrication score, average % change from baseline to Week 12 (increased from baseline)",[10],149%**
same,"ASF Arousal/sensation score, average % change from baseline to Week 12 (increased from baseline)",[10],71.2%**
same,"ASF Desire score, average % change from baseline to Week 12 (increased from baseline)",[10],21.0%*
same,"ASF Orgasm score, average % change from baseline to Week 12 (increased from baseline)",[10],62.4%
same,"ASF SUMMARY SCORE, average % change from baseline to Week 12 (increased from baseline)",[10],46.6%**
same,"ASF Arousal/lubrication score, average % change from baseline to Week 12 (increased from baseline)",[11],149%
same,"ASF Arousal/sensation score, average % change from baseline to Week 12 (increased from baseline)",[11],71.2%
same,"ASF Desire score, average % change from baseline to Week 12 (increased from baseline)",[11],21.0%
same,"ASF Orgasm score, average % change from baseline to Week 12 (increased from baseline)",[11],62.4%
same,"ASF SUMMARY SCORE, average % change from baseline to Week 12 (increased from baseline)",[11],46.6%
same,"ASF Arousal/lubrication score, average % change from baseline to Week 12 (increased from baseline)",[12],84.6%
same,"ASF Arousal/sensation score, average % change from baseline to Week 12 (increased from baseline)",[12],52.7%
same,"ASF Desire score, average % change from baseline to Week 12 (increased from baseline)",[12],14.0%
same,"ASF Orgasm score, average % change from baseline to Week 12 (increased from baseline)",[12],55.3%
same,"ASF SUMMARY SCORE, average % change from baseline to Week 12 (increased from baseline)",[12],31.1%
same,"ASF Arousal/lubrication score, average % change from baseline to Week 12 (increased from baseline)",[13],84.6%
same,"ASF Arousal/sensation score, average % change from baseline to Week 12 (increased from baseline)",[13],52.7%
same,"ASF Desire score, average % change from baseline to Week 12 (increased from baseline)",[13],14.0%
same,"ASF Orgasm score, average % change from baseline to Week 12 (increased from baseline)",[13],55.3%
same,"ASF Arousal/lubrication, average % change from baseline to Week 12 in severity score over placebo",[14],118%**
same,"ASF Arousal/sensation, average % change from baseline to Week 12 in severity score over placebo",[14],64.2%*
same,"ASF Desire, average % change from baseline to Week 12 in severity score over placebo",[14],12.9%
same,"ASF Orgasm, average % change from baseline to Week 12 in severity score over placebo",[14],14.3%
same,"ASF Arousal/lubrication, average % change from baseline to Week 12 in severity score over placebo",[15],67.6%
same,"ASF Arousal/sensation, average % change from baseline to Week 12 in severity score over placebo",[15],58.0%
same,"ASF Desire, average % change from baseline to Week 12 in severity score over placebo",[15],15.2%
same,"ASF Orgasm, average % change from baseline to Week 12 in severity score over placebo",[15],59.4%
same,"ASF Summary score, average % change from baseline to Week 12 in severity score over placebo",[15],32.1%
same,"ASF Arousal/lubrication, average % change from baseline to Week 12 in severity score over placebo",[16],104%**
same,"ASF Arousal/sensation, average % change from baseline to Week 12 in severity score over placebo",[16],62.6%**
same,"ASF Desire, average % change from baseline to Week 12 in severity score over placebo",[16],12.3%*
same,"ASF Orgasm, average % change from baseline to Week 12 in severity score over placebo",[16],26.4%
same,"Sum of changes above placebo, ASF domains",non MS group,200.2% and 202.2%
same,"Specificity of the effect of DHEA, ASF",non MS pain group versus MS pain group,30 fold
